Laboratory results as given in patent publication US10369131B2, “Ultrapure tetrahydrocannabinol-11-oic acids” (Corbus Pharmaceuticals, Inc., priority 2013, dated 2019).

Assays:
[1] = target: hCB2 receptor (Homo sapiens, UniProt P34972); assay: CB receptor radioligand binding assay, human CB2; parameters: expressed in transfected cells; host or cells: HEK-293T
Experimental: Membrane preparation—HEK-293T cells were cultured according to ATCC (Manassas, Va.) guidelines and transfected with human CB1 cDNA (Genbank X54937) or CB2 cDNA (Genbank X74328), operably linked to the SV40 promoter, using Polyfect (Qiagen, Valencia, Calif.) or Fugene (Roche, Nutley, N.J.) according to manufacturer's instructions. 48 h after transfection, cells were harvested in ice cold membrane buffer (20 mM HEPES, 6 mM MgCl2, 1 mM EDTA, pH 7.2) using a cell scraper. Cells were transferred to a nitrogen cavitation chamber and a pressure of […] was applied for 30 min. The pressure was released and the cell debris was collected and centrifuged at 1000 g at 4° C. for 10 min. The supernatant was collected and the spin was repeated until the supernatant was free of precipitate. […] The membrane concentration was determined using a BioRad (Hercules, Calif.) protein assay dye reagent according to manufacturer's instructions. […]
Membranes were incubated for 2 hr at room temperature, then filtered onto a presoaked (with 0.1% polyethylenimine for 1 to 2 hr) 96 well GF/B filterplate (Packard Bioscience, Shelton, Conn.) and washed with […] ice cold wash buffer (25 mM HEPES, 1 mM CaCl2, 5 mM MgCl2, 0.25M NaCl) using a Filtermate 196 Harvester (Packard Instruments, Downers Grove, Ill.). […] Plates were counted on a Topcount NXT (Packard, Shelton, Conn.). […]

[2] = system: female CD-1 mice; assay: Ring immobility (catalepsy) test
Experimental: The cataleptic response was measured using the ring test described by Pertwee (Pertwee R G, The Ring Test. A Quantitative Method of Assessing the Cataleptic Effect of Cannabis in Mice, Br. J. Pharmacol. 46:753-763 (1972)). Mice were placed on a horizontal wire ring 5.5 cm in diameter attached to a 16 cm vertical rod. The hind paws and fore paws were placed at opposite sides of the ring. The ambient temperature was maintained at 30° C. and the environment was free of auditory stimuli and bright lights. The response was calculated as the fraction of time the mouse was immobile over a five (5) minute test period.
A dose response was conducted for ultrapure AJA to oral doses of 0.05 to 56 mg/kg.
Compounds were administered at a volume of […] via oral gavage.
Female CD-1 mice (20-25 g), obtained from Charles River (Raleigh, N.C.), were used for assessment in hot plate nociception, rectal temperature, and ring immobility assays. Separate mice were used for testing each dose of each compound in this battery of procedures. The mice had free access to food and water when in their home cages. All animals were kept in a temperature-controlled (20-22° C.) environment with a 12-hour light-dark cycle (lights on at 7 a.m.).
Each mouse was tested in a battery of three tests, in which cannabinoid CB1 agonists produce in vivo effects in mice (Martin et al., 1991): antinociception (hot plate assay), decreased rectal temperature and ring immobility. Prior to administration of the test compound, rectal temperature and baseline latency in the hot plate test were measured in the mice. The latter procedure involved placing the mouse on a heated surface (mouse cold/hot plate analgesia apparatus; Stoelting, Wood Dale, Ill.) at a setting of 55° C. Time until the mouse lifts or licks a paw was measured, whereupon the mouse was removed from the apparatus. […] After measurement of baseline temperature and hot plate latency, mice were administered vehicle or drug via oral gavage. […] Subsequently, the mice were placed on a 5.5 cm ring attached at a height of 16 cm to a ring stand, and the amount of time the animals remained motionless during a 5 min period was recorded. In addition, the number of times the mouse fell or jumped off the ring was recorded. If the mouse fell off the ring more than 5 times, the test was terminated.
Rectal temperature values were expressed as the difference between control temperature (before injection) and temperature following drug administration (Δ° C.). Antinociception was expressed as the percent maximum possible effect (MPE) using a 30-s maximum test latency as follows: [(test−control)/(30−control)]×100. During assessment for catalepsy, the total amount of time (in seconds) that the mouse remained motionless on the ring apparatus (except for breathing and whisker movement) was measured and was used as an indication of catalepsy-like behavior. This value was divided by 300 s and multiplied by 100 to obtain a percent immobility. If the mouse fell off the ring more than 5 times, the test was terminated and ring immobility data for the mouse were not included in analysis. Separate between-subjects ANOVAs were used to analyze each measure. Significant differences from control (vehicle) were further analyzed with Tukey post hoc tests (α=0.05) as necessary.

[3] = system: CD-1 mice, arachidonic acid induced paw edema; assay: Arachidonic acid induced paw edema model; assay type: in vivo, mouse; conditions: oral 5, 50 and 500 ug/kg, 90 min before arachidonic acid, paw volume 45 min after injection
Experimental: CD-1 Mice (Female) were randomly allocated to experimental groups and allowed to acclimatise for one week. Prior to test compound administration, baseline right hind paw volume was measured under gas (isoflurane) anaesthesia using a water displacement device (plethysmometer, Stoelting). On Day 0, ultrapure AJA suspended in 2% MC or vehicle was administered at 0, 5, 50 and 500 ug/kg by oral gavage. Ninety minutes after treatment administration, the animals were given 10 microliters of a 100 mg/ml arachidonic acid solution in 5% ethanol by subcutaneous injection into the plantar aspect of the right hind paw. A control group of animals (Group 1) was administered with an equivalent volume of a 5% ethanol solution. The left hind paws were not injected. Intra-plantar injections were performed under gas anaesthesia. 45 minutes after the intra-plantar injections right hind paw volume was measured under gas anaesthesia using a plethysmometer.

[4] = system: C57Bl mice, bleomycin induced skin fibrosis; assay: Bleomycin induced skin fibrosis mouse model of scleroderma; assay type: in vivo; conditions: for inhibition of skin fibrosis: oral gavage 2.5, 5.0 and 10 mg/kg daily, bleomycin s.c. 14 days, sacrifice day 21
Experimental: Groups of 8 mice (6-12 week-old C57Bl) received daily s.c. injections of bleomycin (20 ug/mouse) or vehicle for 14 days, followed by one weeks of recovery. In parallel, starting day 1, ultrapure AJA suspended in 2% methylcellulose (MC) or vehicle was administered by oral gavage at 0, 2.5, 5.0 and 10 mg/kg. On day 21, mice were sacrificed. Their skin was harvested and processed for routine histology (H&E, trichrome and picrosirius red stains), immunohistology (paraffin-embedded or frozen samples), in situ hybridization, collagen (SIRCOL) assays, and RNA isolation for real-time qPCR or microarray hybridization. Skin sections were carefully characterized and quantified for dermal inflammation, dermal thickening, collagen accumulation (Trichrome), and collagen cross-linking (Sirius red) in lesional skin.

Sequence of hCB2 receptor (P34972 whole entry): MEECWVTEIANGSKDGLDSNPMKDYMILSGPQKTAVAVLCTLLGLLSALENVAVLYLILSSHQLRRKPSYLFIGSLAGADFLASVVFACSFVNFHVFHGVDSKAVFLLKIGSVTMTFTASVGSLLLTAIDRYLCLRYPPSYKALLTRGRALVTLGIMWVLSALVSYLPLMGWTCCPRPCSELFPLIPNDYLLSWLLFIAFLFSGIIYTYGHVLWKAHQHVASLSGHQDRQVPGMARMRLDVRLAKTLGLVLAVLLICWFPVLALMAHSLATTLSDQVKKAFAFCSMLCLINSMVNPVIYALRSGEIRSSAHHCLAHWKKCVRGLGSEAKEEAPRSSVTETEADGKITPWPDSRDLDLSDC

With `CCCCCCC(C)(C)c1cc(O)c2c(c1)OC(C)(C)[C@@H]1CC=C(C(=O)O)C[C@@H]21` [JBT-101, (6aR,10aR)-3-(1′,1′-dimethylheptyl)-Δ8-tetrahydro-cannabinol-9-carboxylic acid] as the compound, how does the Ki [1] read?
The Ki was 0.051 ± 0.011 µM.

What about the “doses required to see catalepsy compared with AJA (3a) from U.S. Pat. No. 5,338,753” value ([2]; dose response 0.05 to 56 mg/kg oral) of the same compound?
Its value is “required much higher doses”.

And the “percent ring immobility in the catalepsy test” value ([2]; lower oral doses, up to 10 mg/kg)?
The value was “did not affect this measure”.

What about the “percent ring immobility in the catalepsy test” value ([2]; oral 30 and 56 mg/kg, vs vehicle, p<0.05) of the same compound?
The value was “significantly increased percent ring immobility”.

And the “doses at which active in the ring test” value ([2]; oral in oil, FIG. 14)?
The value was at least 30 mg/kg.

And the “inhibition of paw volume / inflammation” value [3]?
Its value is “effective at doses well below the doses in which CB1 activity is observed”.

What about the “inhibition of paw volume / inflammation” value ([3]; listed as ultrapure AJA) of the same compound?
The value was “effective at all doses tested”.

And the “inhibition of skin thickening” value ([4]; all oral doses, including 1 mg/kg (data not shown))?
Its value is “equally effective”.

And the “inhibition of skin fibrosis” value [4]?
Its value is “effective at inhibiting skin fibrosis”.

And the “inhibition of skin fibrosis” value ([4]; listed as ultrapure AJA)?
The value was “effective at all doses tested”.
